Results as given in ChEMBL document CHEMBL3507680, “University of Dundee, Gates Library screen for HepG2 cell viability”.

Assay: Human HepG2 cell viability assay in 384 well format
Assay type: toxicity, cell-based
Parameters: dose 125 nL, time 70.5 hour; cytotoxicity at 70.5 h: concentration not given beside the values
Details: HepG2 cells, read-out: Inhibition

Compound	cytotoxicity at 70.5 h
COC(=O)CC(NC(=O)CCn1cccn1)c1ccc(C)cc1 (configuration not stated)	-0.705%
O=C(c1ccncc1)N1CCCC(C2=Nc3ccccc3S(=O)(=O)N2)C1 (configuration not stated)	-3.07%
CC(=O)N(C)Cc1ccccc1NC(=O)N(C)CCc1cccs1	-3.06%
O=C([C@@H]1CCCO1)N1CCn2c(Cn3cccn3)cnc2C1	-0.354%
NCCc1c(-c2ccccc2)[nH][nH]c1=O	-7.56%
CC(C)NC(=O)N1CC[C@@H](N(C)C)[C@@H]1Cc1ccncc1	-6.16%
Cc1oncc1C(=O)N1CC[C@H]2CO[C@H](CN3CCCC3)[C@H]2C1	-7.95%
CC(=O)c1cc(CC(=O)N2CCCC2c2nc(C(C)C)no2)cs1 (configuration not stated)	-3.24%
COc1ccccc1NC(=O)NCC(O)c1ccc(F)cc1F (configuration not stated)	17.3%
COc1ccc(CNCCC(=O)N2CCc3sccc3C2)cc1O	5.44%
O=c1cc2c(nn1CN1CCN(c3ccccc3)CC1)CCCC2	-15%
COC(C)(C)CC(C)NCc1cn2ccccc2n1 (configuration not stated)	-16.8%
Cc1cc(N(C)CCn2ccnc2C)n2nccc2n1	-11.6%
N[C@H]1CC[C@@H](n2cc(C(=O)NC3COc4ccccc43)nn2)CC1 (some centres not stated)	-0.524%
CNC(=O)CN1CCC(c2nn(C)c(=O)n2-c2ccccc2)CC1	-4.2%
COC[C@@]12CC[C@@H](N3CCOCC3)C[C@H]1CCN(c1cc(C)ccn1)C2	-1.61%
CCOCCC1(C(=O)N2CCCC(c3ncc[nH]3)C2)CCCC1 (configuration not stated)	-16.4%
CN(C)C(=O)[C@@H]1CC[C@@H]2[C@@H](CCN2Cc2nccs2)O1	-14.7%
CC1=CCN(C(=O)Nc2ccccc2N2CCOC2=O)CC1	0.848%
CCc1nccn1C1CCCN(C(=O)Cc2ccc(OC)c(F)c2)C1 (configuration not stated)	4.08%
N#Cc1cccnc1N1CCC(OCc2ccccc2)CC1	-8.71%
COc1ccc(F)cc1NC(=O)NCC1(CN2CCOCC2)CC1	-0.333%
Cn1cnc2c1C(COCC1CCOCC1)CN(C(=O)C1CC=CC1)C2 (configuration not stated)	-2.11%

Compound	cytotoxicity at 70.5 h
CNC(=O)[C@@H]1C[C@H]2CN(C(=O)c3ccco3)C[C@H]2N1C(C)C	-10.2%
Cc1ccc(C)c(CS(=O)(=O)CC(=O)N(C)Cc2cccc(F)c2)c1	21.1%
O=C1OCCCN1Cc1nc(-c2ccc(N3CCCCC3)cc2)no1	-11.4%
Cn1cc(NC(=O)CNC(=O)N2CCN(c3ccccc3)CC2)cn1	-8.66%
CCC(C)(COc1ncccc1Cl)NCC(=O)NCC(C)C (configuration not stated)	-30.2%
CCOCC(=O)NCC(C)(O)c1cc(C)oc1C (configuration not stated)	-0.44%
Cc1ccc(=O)n(CC2(O)CCN(Cc3cccs3)CC2)n1	-8.17%
CCN1CC(C(=O)N2CCN(CCn3cccc3)CC2)CC1=O (configuration not stated)	18.1%
COCc1cncc2c1CCN(C(=O)c1ccsc1)C2	9.92%
O=C(c1ccc(Cl)cc1-n1cnnn1)N1CCC2(CC1)OCCO2	-0.151%
Cc1cc(C)n(CC2CCCN2C(=O)CCc2ccncc2)n1 (configuration not stated)	-6.13%
COc1ccc(OC)c(CNCc2ccnc(N3CCOCC3)c2)c1	-4.43%
Cc1ccc(C(N)=O)c(N2C[C@H]3OC(=O)N(C4CCCC4)[C@H]3C2)n1	-11.9%
CC1=N[C@@]2(CC[C@@H]3CN(CC(=O)N(C)C)C[C@@H]32)C(=O)N1CC1CC1	-2.19%
CC(C)OCCOCc1cccc(NC(=O)NCC(=O)N(C)C)c1	-2.88%
CC(C)CNC(=O)c1ccc2c(c1)nc1n2CCN(Cc2ccco2)C1	-0.527%
CC(=O)N1N=C(c2ccccc2)OC1C(=O)NCCc1cccc(F)c1 (configuration not stated)	4.79%
Cc1nc(C)n(CC2CCCN2c2ncnc3c2CCC3)n1 (configuration not stated)	15.2%
COC(=O)N1CCCCC1C(=O)N1CCN(c2cccnc2)CC1 (configuration not stated)	6.34%
O=C(CCn1cccn1)NS(=O)(=O)N1CCCc2ccccc21	-8.67%
Cc1cccc(S(=O)(=O)N2C[C@H]3C[C@H](C(=O)N(C)C)[C@@H](C2)O3)c1	1.15%
CC(C)[C@H]1COC(=O)N1CC(=O)N(C)CCCn1cccn1	-4.67%
CC(C(=O)NCc1ccnc(OCC(F)(F)F)c1)n1cncn1 (configuration not stated)	-2.68%

Compound	cytotoxicity at 70.5 h
CCC(=O)N1CCN(C)C(=O)C(Cc2ccccc2-c2cccs2)C1 (configuration not stated)	-1.38%
O=S1(=O)C[C@@H]2[C@H](C1)N(Cc1ncc[nH]1)CCN2CCCc1ccccc1	-1.68%
Cc1cnc(C(=O)N2C[C@H]3CC[C@@H]2CN(S(=O)(=O)N(C)C)C3)cn1	-7.71%
NC(=O)Cn1cc(NC(=O)N2CCSCC2)cn1	15.3%
CCS(=O)(=O)c1ccccc1N1CCC(NC(=O)c2ccc[nH]2)CC1	-1.59%
O=C1CC2(CCN(CC3CCOC3)CC2)CN1Cc1cc(F)cc(F)c1 (configuration not stated)	-6.96%
Cc1cnn(CC2CN(CC(=O)NCc3ccc(C)s3)CCO2)c1 (configuration not stated)	-13.6%
CCC(O)Cn1nc(-c2ccc(C(=O)O)cc2)cc1-c1cccc(F)c1 (configuration not stated)	20.1%
CCOc1ccc(NC(=O)NCc2csc(NC)n2)cc1C	-5.86%
c1coc(-c2nnc(CN(Cc3cccs3)CC3CCCO3)o2)c1 (configuration not stated)	-6.66%
Cn1ccc2c(-c3cc(N4CCCCC4)ncn3)ccnc21	24.9%
CCc1nnsc1C(=O)NCc1c(C)nn(CCOC)c1C	-7.41%
O=C1CC2(CCCC2)CC(=O)N1Cc1nccs1	-1.44%
COCCn1c2c(ccc1=O)CC(N)CC2 (configuration not stated)	-0.36%
CC(C)c1noc(Cn2ncn3cccc3c2=O)n1	-6.57%
CCc1csc(C2CCCN(C(=O)COc3cc(C)on3)C2)n1 (configuration not stated)	-8.8%
Cc1ccc(S(=O)(=O)N2CC[C@H]3CO[C@H](CN(C)C)[C@H]3C2)cc1	-6.81%
Cc1nc(N2CCCCC2)ncc1-c1cc(O)[nH]n1	-3.47%
Cc1nc(CN(C)Cc2csc(-c3cccs3)n2)co1	6.2%
CC(C)NC(=O)CC1(Cn2cnnn2)CCCCC1	-22.1%
O=C(c1ccc(-n2ccnc2)cc1)N1CCCC(n2ccnc2)C1 (configuration not stated)	-6.23%
CCc1noc(CC)c1CC(=O)N1CCN(C(=O)C2CCCC2)CC1	-9.43%
CCN(CCn1cccn1)Cc1nc(-c2cccc(C)c2)oc1C	-5.06%

Compound	cytotoxicity at 70.5 h
CCn1c(CC2CCNCC2)nn(Cc2ccc(C(=O)NC)o2)c1=O	-11.7%
CN(C)C(=O)CN1CCc2ncnc(N(C)C)c2CC1	-6.04%
OC1(CNCc2noc(Cc3ccccc3)n2)CNCCOC1 (configuration not stated)	-4.33%
O=C(O)c1c[nH]c2cc(NS(=O)(=O)c3cc(F)ccc3Cl)ccc12	-9.41%
Cc1ccc(OCC(=O)N2C[C@@H]3CN(C)CCO[C@@H]3C2)cc1	-7.41%
CSCC(=O)N1CCOC(c2nc(C(C)(C)C)n[nH]2)C1 (configuration not stated)	-0.6%
N#Cc1ccc(CNc2cnn(CCN3CCOCC3)c2)cc1	42.1%
CN(C(=O)c1cn(C)cn1)[C@@H]1CCC[C@@H](Oc2ccccc2)[C@@H]1O	-2.57%
O=C(c1cccnc1O)N1CCOC(Cc2cccc(C(F)(F)F)c2)C1 (configuration not stated)	-7%
CCc1cnc(CNC(=O)NC2CCN(C3CCCC3)CC2)s1	14%
Nc1nccc(NCc2cc3n(n2)CCCN(C2CCCCC2)C3)n1	-1.68%
Cc1cc(C)c(CNC(=O)NC2CCOCC2)c(=O)[nH]1	-12.6%
OC(CN1CCOCC1)CN1CCc2c(ncn2C2CC2)C1 (configuration not stated)	30.4%
O=C(C1CC1)N1CCC2(CCN2Cc2ccc(F)cc2)C1 (configuration not stated)	-0.516%
Cc1nc(CNCC2CN(C)CCO2)cs1 (configuration not stated)	-4.42%
CC(=O)N1CCC(c2nn(C)c(=O)n2-c2ccccc2)CC1	-1.32%
CC(C)c1nc(C2CCCN2Cc2nnc(C3CCC3)o2)no1 (configuration not stated)	14.8%
Cc1nc(CN(C)CC(c2cccs2)N2CCOCC2)no1 (configuration not stated)	-1.7%
OCC1(O)CCN(Cc2noc(-c3ccccc3)n2)CC1	-6.37%
Cc1ccc(C2CCCN2S(=O)(=O)N(C)Cc2cnn(C)c2)o1 (configuration not stated)	13.3%
CCCC(C(=O)NC1CCN(S(C)(=O)=O)CC1)n1cccc1 (configuration not stated)	-3.64%
N#Cc1cccnc1N1CCCN(CC(=O)N2CCNC(=O)C2)CC1	-5.07%
OC1(CNC2CCN(Cc3ccncc3)CC2)CCc2ccccc21 (configuration not stated)	-5.39%

Compound	cytotoxicity at 70.5 h
COCc1nc(N(C)C)ncc1C(=O)OC	-4.46%
COc1ccc(CNC(=O)Nc2cccnc2N2CCCC2)cc1OC	20.8%
COc1cccc([C@H]2CN(C(C)=O)[C@@H]3CCN(Cc4ccsc4)C[C@H]23)c1	-4.18%
CN1CC2(CCN(C(=O)c3ccc(=O)n(C)c3)CC2)CC1=O	18.9%
Cn1nccc1-c1cc(C2CCN(S(C)(=O)=O)CC2)ccn1	-7.68%
CC(=O)N1[C@H](CN(C)C)C[C@@H]2CN(C(=O)Cc3cccs3)CC[C@@H]21	-21.3%
CCCOc1ccc(CN)c(OC(F)F)c1	-3.13%
O=C(NCCCc1ccc(F)cc1)c1ccc(N2CCOCC2)cc1	2.69%
CCS(=O)(=O)N1CCc2c(COCCN(C)C)cncc2C1	2.79%
O=C(Cc1ccccc1)NCCNCc1cccc(O)c1	36.6%
CNC(=O)CN1C(=O)CN(C(=O)COC)CCC(OC)c2ccccc21 (configuration not stated)	15.1%
Cc1noc(CN(C)C(=O)CCn2cnc3ccccc32)n1	-13.9%
CNc1ncc(-c2ccc(NC(=O)[C@@H]3CCCCN3)cc2)cn1	-1.05%
CC(=O)c1cccc(S(=O)(=O)NCCNC(=O)c2snnc2C)c1	7.7%
CCC1c2ccsc2CCN1C(=O)NCCc1ccccn1 (configuration not stated)	-9.75%
Cc1nn(C)c(N2CCOCC2)c1CNC1CCC(O)CC1 (configuration not stated)	-1.76%
CCc1c(C)nn(CC(=O)NC(C)c2n[nH]c(C)n2)c1C (configuration not stated)	16.1%
O=C(Nc1nc2c(s1)CN(S(=O)(=O)C1CC1)CC2)Nc1ccccc1F	23.7%
O=C(O)CSc1nnc(-c2ccn[nH]2)n1-c1cccc(C(F)(F)F)c1	-4.2%
CNc1cc(N2CCCC2CNCc2cccnc2)ncn1 (configuration not stated)	4.98%
